These results are taken from PubChem BioAssay (NCI).

Some test systems named below: CAKI-1 renal; DU-145 prostate; HOP-92 NSCLC; KM12 colon; SK-MEL-28 melanoma; SK-MEL-5 melanoma; UACC-257 melanoma; HL-60(TB) leukemia.
What all share (experiment): NCI anticancer screen, dose series, 48 h

Where “and” joins values, the source holds several entries; their conditions need not be identical. Equal entries are not always repeated.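 Grown in 96-well plates, cells were treated for 48 hours with each compound at five concentrations. Insufficient inhibition: endpoint recorded as highest concentration tested. Here, GI50 denotes the concentration required for 50% inhibition of growth. TGI: concentration producing complete growth inhibition.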

Consider `COc1cc2c(cc1OC)-c1ncc3cc(OC)c(OC)c(OC)c3c1C2`, for which the GI50 is 20.5 µM with CAKI-1 renal; 21.7 µM in the test with DU-145 prostate; 15.3 µM with HOP-92 NSCLC; 17.9 µM in the test on KM12 colon; 46.7 µM in the test on SK-MEL-28 melanoma; 1.68 µM in the test with SK-MEL-5 melanoma. For the same compound, in the test on UACC-257 melanoma, the GI50 is 16.4 µM. The TGI in the test with CAKI-1 renal is 86.1 µM; with DU-145 prostate it was > 100 µM; in the test on HOP-92 NSCLC, > 100 µM; in the test with KM12 colon, 95.1 µM; in the test on SK-MEL-28 melanoma it was > 100 µM; with SK-MEL-5 melanoma, 3.05 µM. Besides, the TGI with UACC-257 melanoma is 52.6 µM.

As to `COc1c(N2CCN(CN3C(=O)C(=O)c4ccccc43)C(C)C2)c(F)cc2c(=O)c(C(=O)O)cn(C3CC3)c12` (stereo not given), the GI50 in the test with CAKI-1 renal is > 100 µM; in the test with DU-145 prostate, 49.9 µM; in the test on HL-60(TB) leukemia it was > 100 µM; with KM12 colon, 76.2 µM; in the test on SK-MEL-28 melanoma it was > 100 µM; in the test on SK-MEL-5 melanoma it was 35.3 µM. The GI50 with UACC-257 melanoma is > 100 µM. Besides, the TGI in the test with CAKI-1 renal, in the test with DU-145 prostate, in the test with HL-60(TB) leukemia, in the test on KM12 colon, with SK-MEL-28 melanoma and in the test with SK-MEL-5 melanoma was > 100 µM in each case. The TGI in the test with UACC-257 melanoma is > 100 µM.

With `COc1ccc(C[C@H]2NC[C@H](O)[C@H]2OC(C)=O)cc1`, the TGI in the test on CAKI-1 renal was found to be 0.06 µM; with DU-145 prostate, 0.27 µM; with HOP-92 NSCLC, 0.186 µM; in the test with KM12 colon it was 0.211 µM; with SK-MEL-28 melanoma it was 0.351 µM; with SK-MEL-5 melanoma, 0.0585 µM. For the same compound, the TGI in the test with UACC-257 melanoma amounted to 2.89 µM. For the same compound, the GI50 in the test with SK-MEL-5 melanoma is 0.0176 µM.

On to `CN1CCN(c2ccc(-c3cccc(CN4CCOCC4)c3)cc2NC(=O)c2c[nH]c(=O)cc2C(F)(F)F)CC1`, for which the GI50 with DU-145 prostate is 62.5 µM; in the test with HL-60(TB) leukemia it was 36.4 µM; in the test on HOP-92 NSCLC, 10.7 µM; with KM12 colon it was 46.8 µM; with SK-MEL-28 melanoma, 37.1 µM; in the test on SK-MEL-5 melanoma it was 14.2 µM. Besides, the GI50 in the test on UACC-257 melanoma was 16.9 µM. The TGI in the test on DU-145 prostate was > 100 µM; in the test on HL-60(TB) leukemia, > 100 µM; in the test with HOP-92 NSCLC it was > 100 µM; in the test on KM12 colon it was > 100 µM; in the test with SK-MEL-28 melanoma, > 100 µM; with SK-MEL-5 melanoma, 28.3 µM. Besides, in the test on UACC-257 melanoma, the TGI was determined as 31.6 µM.

On to `COC(=O)[C@H](Cc1cn(C)cn1)NC(=O)[C@@H](NC(=O)Nc1cc(C(F)(F)F)cc(C(F)(F)F)c1)C(C)(C)C`, for which the GI50 with CAKI-1 renal, in the test with DU-145 prostate, in the test on HL-60(TB) leukemia, in the test on KM12 colon, in the test with SK-MEL-28 melanoma and in the test with SK-MEL-5 melanoma was > 10 µM each time. For the same compound, the GI50 in the test on UACC-257 melanoma was > 10 µM. The TGI with CAKI-1 renal, with DU-145 prostate, in the test on HL-60(TB) leukemia, in the test on KM12 colon, with SK-MEL-28 melanoma and in the test on SK-MEL-5 melanoma was > 10 µM throughout. Also, the TGI in the test with UACC-257 melanoma was > 10 µM.

`Cc1nc2ccccc2c(/C=C/c2ccccc2)c1C(=O)/C=C/c1ccccc1`: the GI50 with HL-60(TB) leukemia was 2.45 µM; in the test on KM12 colon it was 1.97 µM; in the test with SK-MEL-28 melanoma, 1.83 µM; in the test with SK-MEL-5 melanoma it was 1.77 µM. Also, the TGI in the test with HL-60(TB) leukemia amounted to 6.51 µM; in the test on KM12 colon it was 4.7 µM; in the test with SK-MEL-28 melanoma, 3.3 µM; in the test with SK-MEL-5 melanoma it was 3.17 µM.

On to `Cc1ccc(-n2c3c(c4c(CN)c(O)ccc42)CCc2ccccc2C3=O)cc1`, for which the GI50 with CAKI-1 renal is 13 µM; in the test with DU-145 prostate it was 17.7 µM; with HOP-92 NSCLC it was 2.31 µM; in the test with KM12 colon, 13.2 µM; in the test on SK-MEL-28 melanoma it was 23.4 µM; in the test with SK-MEL-5 melanoma it was 1.61 µM. Moreover, the GI50 in the test on UACC-257 melanoma is 18 µM. Moreover, the TGI in the test on CAKI-1 renal was found to be 26.6 µM; in the test with DU-145 prostate it was 41.7 µM; in the test with HOP-92 NSCLC, 8.11 µM; in the test on KM12 colon, 29.1 µM; with SK-MEL-28 melanoma it was 69.4 µM; with SK-MEL-5 melanoma, 3.01 µM. Further, the TGI in the test on UACC-257 melanoma is 34.1 µM.

On to `Clc1ccc(COC(Cn2ccnc2)c2ccc(Cl)cc2Cl)c(Cl)c1` (stereo not given), for which the GI50 in the test with CAKI-1 renal is 3.18 µM; in the test with DU-145 prostate, 11.3 µM; with HL-60(TB) leukemia it was 2.34 µM; in the test on HOP-92 NSCLC, 1.74 µM; in the test on KM12 colon, 4.36 µM; in the test on SK-MEL-28 melanoma it was 4.96 µM. For the same compound, in the test on UACC-257 melanoma, the GI50 was 5.08 µM. Further, the TGI with CAKI-1 renal is 12.9 µM and 26.8 µM and 23.4 µM; in the test with DU-145 prostate, 23.5 µM and 29.6 µM and 25.6 µM; with HL-60(TB) leukemia it was 6.21 µM and 17 µM and 7.02 µM; with HOP-92 NSCLC, 8.44 µM and 27.1 µM; in the test on KM12 colon, 15.5 µM and 26.4 µM and 28.8 µM; in the test with SK-MEL-28 melanoma, 17.8 µM and 34.2 µM and 26 µM. The TGI in the test on UACC-257 melanoma was 17.7 µM and 30.3 µM and 23.2 µM.

In the case of `CCC(=O)Nc1ncnc2ncn(C(=O)CC)c12`, the TGI in the test with CAKI-1 renal, in the test with DU-145 prostate, with HOP-92 NSCLC, in the test with KM12 colon, in the test on SK-MEL-28 melanoma and with UACC-257 melanoma was > 100 µM in each case.

Regarding `CCCCCCC(O)C(O)CCC(O)C1CCC(CCCCC(O)CC2=CC(C)OC2=O)O1` (stereo not given), the GI50 in the test with CAKI-1 renal is 17.1 µM; with HOP-92 NSCLC, 18.5 µM; in the test on KM12 colon, 24.5 µM; in the test with SK-MEL-28 melanoma, 26 µM; in the test on UACC-257 melanoma it was 3.16 µM. Moreover, the TGI with CAKI-1 renal is 41.6 µM; in the test with HOP-92 NSCLC, 46.7 µM; in the test on KM12 colon it was 77.7 µM; with SK-MEL-28 melanoma, 62.5 µM; in the test on SK-MEL-5 melanoma, 7.07 µM and 13.4 µM; in the test with UACC-257 melanoma, 41.9 µM.

On to `CCCc1n(Cc2ccc3ccccc3n2)cc[n+]1Cc1ccc2ccccc2c1`, for which the GI50 with DU-145 prostate was 1.52 µM; in the test on HL-60(TB) leukemia, 0.312 µM; with HOP-92 NSCLC, 0.188 µM; in the test on KM12 colon it was 0.626 µM; in the test on SK-MEL-28 melanoma it was 1.24 µM; with SK-MEL-5 melanoma, 0.466 µM. Besides, in the test with UACC-257 melanoma, the GI50 is 0.347 µM. Moreover, the TGI with DU-145 prostate was determined as 12.8 µM; in the test on HL-60(TB) leukemia it was 0.933 µM; with HOP-92 NSCLC, 1.12 µM; with KM12 colon, 2.5 µM; in the test with SK-MEL-28 melanoma, 6.23 µM; in the test with SK-MEL-5 melanoma, 1.69 µM. The TGI in the test with UACC-257 melanoma is 1.72 µM.

For the compound `COc1cccc(NC(=O)c2ccc(NC3=C(Cl)C(=O)N(Cc4ccccc4)C3=O)cc2)c1`, the GI50 in the test with CAKI-1 renal is 15.3 µM; with DU-145 prostate it was 19 µM; with HL-60(TB) leukemia it was 11.9 µM; with KM12 colon, 16.9 µM; in the test with SK-MEL-28 melanoma it was 11.5 µM; in the test with SK-MEL-5 melanoma it was 14 µM. Further, in the test with UACC-257 melanoma, the GI50 is 16.2 µM. Further, the TGI with CAKI-1 renal was determined as 30.9 µM; in the test on DU-145 prostate, 38.6 µM; in the test on HL-60(TB) leukemia, 29 µM; with KM12 colon, 40.3 µM; with SK-MEL-28 melanoma, 28 µM; in the test on SK-MEL-5 melanoma, 26.9 µM. In the test with UACC-257 melanoma, this compound registered a TGI of 38.5 µM.
